Experimental findings from ChEMBL document CHEMBL1201862, “PubChem BioAssay data set” (2004) are described below.

SMILES strings stand for the structures. Activity calls are given as the source filed them.

Test [1] concerns the target ORF 73 (Human herpesvirus 8, UniProt O40947). Description: KSHV LANA DNA-binding disruption – biochemical, fluorescence polarization, cherry-picked samples, dose response (AID 504725).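 Note: fluorescence polarization of a labeled DNA duplex reporting LANA DNA binding; potency is for inhibitors that block LANA binding to the DNA.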 Details: species or system Human gammaherpesvirus 8. Background: Fluorescence polarisation rises when a labelled molecule tumbles more slowly, as on binding a larger partner.
In test [2] the target is T1, Apoptotic protease-activating factor 1 (Homo sapiens, UniProt O14727).
T1 sequence (O14727 whole entry): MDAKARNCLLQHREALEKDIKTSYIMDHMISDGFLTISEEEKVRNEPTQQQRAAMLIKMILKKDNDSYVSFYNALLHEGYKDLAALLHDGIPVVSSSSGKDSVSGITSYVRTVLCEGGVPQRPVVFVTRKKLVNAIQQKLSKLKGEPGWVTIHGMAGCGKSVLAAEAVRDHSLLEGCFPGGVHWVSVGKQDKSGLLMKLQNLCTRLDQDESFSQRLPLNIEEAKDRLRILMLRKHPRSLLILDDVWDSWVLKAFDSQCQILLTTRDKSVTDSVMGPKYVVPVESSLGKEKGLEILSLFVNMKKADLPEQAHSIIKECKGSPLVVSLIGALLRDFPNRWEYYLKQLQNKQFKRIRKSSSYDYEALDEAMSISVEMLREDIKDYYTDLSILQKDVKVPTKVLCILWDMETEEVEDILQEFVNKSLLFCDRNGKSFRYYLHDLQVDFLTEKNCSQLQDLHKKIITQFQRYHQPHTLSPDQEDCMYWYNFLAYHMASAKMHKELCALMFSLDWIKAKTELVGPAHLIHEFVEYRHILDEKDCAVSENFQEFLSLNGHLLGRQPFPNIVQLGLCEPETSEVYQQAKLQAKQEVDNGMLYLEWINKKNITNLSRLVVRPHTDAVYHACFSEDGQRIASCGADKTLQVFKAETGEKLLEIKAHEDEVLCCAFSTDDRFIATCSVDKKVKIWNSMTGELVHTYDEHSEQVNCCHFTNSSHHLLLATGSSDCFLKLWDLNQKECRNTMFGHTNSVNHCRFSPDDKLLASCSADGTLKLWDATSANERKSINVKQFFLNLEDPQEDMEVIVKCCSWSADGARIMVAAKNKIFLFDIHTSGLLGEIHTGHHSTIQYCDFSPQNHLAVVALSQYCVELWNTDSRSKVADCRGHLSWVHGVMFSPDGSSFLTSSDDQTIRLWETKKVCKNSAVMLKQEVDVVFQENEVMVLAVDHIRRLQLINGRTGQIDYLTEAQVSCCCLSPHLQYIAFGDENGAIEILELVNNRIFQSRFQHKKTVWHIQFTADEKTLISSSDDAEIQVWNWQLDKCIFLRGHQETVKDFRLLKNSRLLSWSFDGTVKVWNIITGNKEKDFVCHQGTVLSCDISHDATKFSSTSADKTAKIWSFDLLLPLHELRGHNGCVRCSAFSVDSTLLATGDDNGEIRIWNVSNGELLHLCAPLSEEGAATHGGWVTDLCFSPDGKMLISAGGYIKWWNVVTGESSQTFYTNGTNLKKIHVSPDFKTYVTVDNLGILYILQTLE
In kind it is functional.

Test [3] concerns the target T2, Caspase-6 (Homo sapiens, UniProt P55212).
T2 sequence (P55212 whole entry): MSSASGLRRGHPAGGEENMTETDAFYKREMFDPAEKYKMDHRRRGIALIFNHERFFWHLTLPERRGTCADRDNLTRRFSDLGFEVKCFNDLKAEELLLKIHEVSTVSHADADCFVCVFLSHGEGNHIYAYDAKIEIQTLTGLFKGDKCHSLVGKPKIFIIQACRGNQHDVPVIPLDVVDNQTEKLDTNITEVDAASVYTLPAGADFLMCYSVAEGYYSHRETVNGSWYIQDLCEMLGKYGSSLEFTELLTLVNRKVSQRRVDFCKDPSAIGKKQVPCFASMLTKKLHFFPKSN
Description: inhibition of CASP6 peptide cleavage – biochemical, VEID-R110 fluorescence, cherry-pick, dose response (AID 720632).

Test [4] deals with T3, Hexokinase HKDC1 (Homo sapiens, UniProt Q2TB90).
T3 sequence (Q2TB90 whole entry): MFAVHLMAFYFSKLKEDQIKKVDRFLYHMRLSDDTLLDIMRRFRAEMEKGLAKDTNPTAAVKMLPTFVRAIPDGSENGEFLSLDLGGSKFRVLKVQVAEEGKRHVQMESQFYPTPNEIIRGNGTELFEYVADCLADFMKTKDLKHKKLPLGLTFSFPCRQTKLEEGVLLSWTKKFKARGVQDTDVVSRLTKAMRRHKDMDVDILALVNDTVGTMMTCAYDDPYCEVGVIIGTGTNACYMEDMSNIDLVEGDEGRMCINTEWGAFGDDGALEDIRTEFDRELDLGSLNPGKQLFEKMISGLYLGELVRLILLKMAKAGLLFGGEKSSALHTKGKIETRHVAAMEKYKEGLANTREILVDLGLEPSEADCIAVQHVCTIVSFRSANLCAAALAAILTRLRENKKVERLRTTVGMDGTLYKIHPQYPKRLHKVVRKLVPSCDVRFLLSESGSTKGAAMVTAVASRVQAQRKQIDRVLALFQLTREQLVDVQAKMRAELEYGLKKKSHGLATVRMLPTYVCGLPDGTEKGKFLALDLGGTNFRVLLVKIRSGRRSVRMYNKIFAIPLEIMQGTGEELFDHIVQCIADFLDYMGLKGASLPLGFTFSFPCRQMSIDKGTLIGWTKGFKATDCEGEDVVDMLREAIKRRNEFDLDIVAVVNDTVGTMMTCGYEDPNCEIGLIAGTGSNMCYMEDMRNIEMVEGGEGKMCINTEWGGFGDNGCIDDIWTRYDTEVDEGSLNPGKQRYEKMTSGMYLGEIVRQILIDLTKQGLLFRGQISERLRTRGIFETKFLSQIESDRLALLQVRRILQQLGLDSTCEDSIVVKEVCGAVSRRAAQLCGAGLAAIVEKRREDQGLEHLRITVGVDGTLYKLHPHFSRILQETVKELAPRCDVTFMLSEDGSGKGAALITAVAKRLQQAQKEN
The test is described as follows: inhibition of HKDC1 glucose phosphorylation – biochemical, W721R variant, dose response (AID 504729). In kind it is functional.

ORF 73, sequence (O40947 whole entry): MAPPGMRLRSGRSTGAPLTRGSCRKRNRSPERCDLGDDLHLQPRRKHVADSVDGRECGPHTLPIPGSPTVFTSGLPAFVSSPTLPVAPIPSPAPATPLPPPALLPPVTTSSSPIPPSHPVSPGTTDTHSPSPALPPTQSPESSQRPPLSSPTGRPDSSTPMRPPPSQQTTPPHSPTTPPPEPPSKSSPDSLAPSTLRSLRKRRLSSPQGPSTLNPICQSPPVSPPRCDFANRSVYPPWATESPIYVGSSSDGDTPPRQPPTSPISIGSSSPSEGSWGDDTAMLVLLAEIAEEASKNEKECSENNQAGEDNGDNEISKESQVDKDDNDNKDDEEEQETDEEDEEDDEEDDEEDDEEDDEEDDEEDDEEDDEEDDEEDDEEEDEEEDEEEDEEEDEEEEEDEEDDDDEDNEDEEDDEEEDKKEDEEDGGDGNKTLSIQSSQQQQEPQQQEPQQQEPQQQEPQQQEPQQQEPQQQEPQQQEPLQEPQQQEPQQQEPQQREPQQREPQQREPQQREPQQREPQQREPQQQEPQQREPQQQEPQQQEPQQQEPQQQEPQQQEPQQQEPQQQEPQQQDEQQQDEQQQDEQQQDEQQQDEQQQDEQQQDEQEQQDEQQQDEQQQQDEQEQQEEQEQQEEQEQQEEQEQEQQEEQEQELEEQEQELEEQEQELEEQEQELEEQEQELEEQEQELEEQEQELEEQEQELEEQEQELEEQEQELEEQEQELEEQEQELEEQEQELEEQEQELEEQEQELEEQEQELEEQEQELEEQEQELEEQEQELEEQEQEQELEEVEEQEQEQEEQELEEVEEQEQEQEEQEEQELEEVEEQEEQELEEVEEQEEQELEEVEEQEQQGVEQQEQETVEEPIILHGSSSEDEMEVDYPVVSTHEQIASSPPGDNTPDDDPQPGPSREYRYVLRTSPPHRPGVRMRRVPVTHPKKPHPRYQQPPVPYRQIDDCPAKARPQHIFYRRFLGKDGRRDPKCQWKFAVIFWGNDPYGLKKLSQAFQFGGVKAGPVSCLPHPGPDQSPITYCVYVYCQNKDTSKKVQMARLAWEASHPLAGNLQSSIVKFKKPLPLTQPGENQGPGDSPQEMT

As usually defined, the AC50 is the concentration giving half of the maximal activity seen. What is called IC50 is the point on the concentration scale where inhibition reaches its midpoint. `COc1ccc2noc3c2c1C(=O)c1ccccc1-3`: in test [1], the AC50 is 0.228 µM (active). Moreover, the IC50 in test [2] was 42.5 µM (active).
With `CCc1ccc2c(c1)C(NC(C)=O)C(=O)N2CCN1CCOCC1` (centres undefined), in test [3], the AC50 is 11.9 µM (active). Also, the IC50 in test [4] was 6.27 µM (active).
